Data on 3 compounds can be found in patent US20040241184A1, “Fermentation product of cyptoporous volvatus and its preparation method and use” (priority 2001, published 2004).

Test [1] has as its system cavy cough caused by citric acid. Kind of test: Cough reverberation of cavy caused by citric acid. To be noted: 10 mg · kg^−1, once daily 3 days. It is filed as in vivo. The protocol: Put cavies into a volume marked box to stabilize for 1 min, and then atomize 15% citric acid for 2 min by ultrasonic nebulizer. From then on, select the cavies that cough more than 10 times in minutes. Divide the selected cavies into 5 groups in terms of their cough times, and then treat them respectively with testing medicine sample CVFS 0.3 g/kg, 0.9 g/kg, 2.7 g/kg, positive control codeine phosphate (10 mg/kg), and the negative control group is administered by intragater method with 10 ml·kg^−1 physiological saline solution (i.g), one time every day, altogether 3 days. 1 hour after the last administration of medicine, induce cough by above method and count the cough times in 10 min from the beginning of atomization.

Test [2] deals with sensitized cavies attacked by antigen (egg albumin). Kind of test: Inflammatory cells in bronchial lung lavage solution of sensitized cavies after antigen attack (Table 3). The format is in vivo, cavy. To be noted: 0.5 mg/kg Ip, 10 days. The protocol: 2% egg albumin gel solution is used to cause allergy and is subcutaneously injected (0.05 mL each part) in ten parts of two retral soles, groin, waist, back, neck and armpits of each cavy. 0.5 mL 2% egg albumin gel solution is intraperitoneally injected at the same time. The medicine samples are injected since the tenth day after allergy has been caused. The testing samples of A2, B2, C2 or physiological saline solution (NS, 0.5 mL/kg) or dexamethasone (DXM, […]) are intraperitoneal injected respectively; A1, B1 (5 g/kg), C1 (2.5 g/kg) are administered by intragaster. The above testing samples are administered 10 days. A1: fermentation mycelium powder; […]: culture supernatant concentrated fluid; C1: sporophore powder; A2: water extract of fermentation mycelium; B2: fermentation concentrated fluid; C2: water extract of sporophore powder; dexamethasone sodium phosphate. Asthma as a chronic airway inflammatory disease is characterized by significant increase of eosinophils of bronchus and lung. Eosinophils can release tens of inflammatory substances, such as cytokines, leukotriene and prostapar etc., which may cause inflammation, edema, injury and thickening of airway, make narrow airway and therefore lead to dyspnea. Thus, eosinophil is considered as a target of screening drugs for relieving cough at present. The medicine, which can inhibit inflammation of airway eosinophils, would probably be used for preventing and treating asthma.

Test [3] has the same test system. Kind of test: Elementarily separated substances: inflammatory cells in bronchial lung lavage solution of sensitized cavies after antigen attack (Table 5). The format is in vivo, cavy. To be noted: 0.5 mg/kg intraperitoneal, 10 days. The protocol: 2% egg albumin gel solution is used to cause allergy. The medicine samples are administered since the tenth day after allergy has been caused. The cavies are administered by introgaster method with this tested medicine sample or with physiological saline solution (10 ml/kg); or administered by intraperitoneal method with dexamethasone (0.5 mg/kg). All of the testing medicine samples are administered 10 days. A: total polysaccharide extracted from fermentation product; B: total alkaloids extracted from fermentation product; C: volatile oil extracted from fermentation product; D: organic acid extracted from fermentation product; E: water extract of fermentation product; positive control: dexamethasone.

Test [4] shares this test system. Kind of test: Example 4 polysaccharide: inflammatory cells in bronchial lung lavage solution of sensitized cavies after antigen attack (Table 7). To be noted: 0.5 mg/kg. It is filed as in vivo, cavy. The protocol: Take 20 g fermentation mycelial powder, add in 400 mL distilled water, boil and extract for 30 min. After filtration, add another 200 mL distilled water to the residue, then repeat the same steps. Mix the filtrate of the two times and add in 100 mL culture supernatant fluid. Then put the mixture into dialysis bag of retention molecular weight 10,000 Dalton and dialyze 10 mM pH6.0 buffer solution of HAc-NaAc 2000 mL for three days to remove small molecular substances in the solution. Change the penetrated liquid 1 time each day.
Then concentrate the residue to 100 mL. On animal test, the polysaccharide affects inflammatory cells in bronchial lung lavage solution of sensitized cavies after being attacked by antigen. (The results are described in Table 7.) 2% egg albumin gel solution is used to cause allergy and is subcutaneous injected (0.05 mL each part) in ten parts of two retral soles, groin, waist, back, neck and armpits of each cavy. 0.5 mL 2% egg albumin gel solution is intraperitoneal injected at the same time. The samples are injected since the tenth day after allergy has been caused.

Test [5] concerns sensitized cavies attacked by antigen (1% egg albumin). Kind of test: Pulmonary mechanical function (lung resistance RL) of sensitized cavies after antigen attack. The format is in vivo, cavy. To be noted: 7 mg/kg×1 d; P<0.05˜0.01 in all time phases during 10 min after antigen attack.
Procedure: Suppose airway resistance (RL) is 1005 before being attacked by antigen. Compared with the model group: *P<0.05, **P <0.001, ***P<0.001.
Each cavy is sensitized by being injected 10 mg egg albumin into the muscles of its crus. 3-4 weeks later, antigen attack (1% egg albumin) is given and the caused changes of lung resistance (RL) are observed to evaluate the activity of the samples.

Each structure is given as a SMILES string.

Regarding `COc1ccc2c3c1O[C@H]1[C@@H](O)C=C[C@H]4[C@@H](C2)N(C)CC[C@@]341` [Codeine phosphate, codeine phosphate], in test [1], the “Cough times (in 10 min)” value came to 9.4 ± 8.0 and the “Inhibition of cough times %” value was found to be 67.4%.

Consider `C[C@@H]1C[C@H]2[C@@H]3CCC4=CC(=O)C=C[C@]4(C)[C@@]3(F)[C@@H](O)C[C@]2(C)[C@@]1(O)C(=O)CO` [DXM, dexamethasone], for which, in test [2], the Eosinophils amounted to 2.60 ± 3.9 %, the Leukocyte total number was 241.6 ± 179.2 Number/mm^3, the Lymphocyte is on record as 68.4 ± 18.4 % and the Neutrophil was determined as 28.9 ± 16.6%. In addition, in test [3], the Eosinophils is recorded as 0.00 ± 0.00 %, the “Leukocyte total number” value is reported as 330.5 ± 254.3 Number/mm3, the Lymphocyte is reported as 87.70 ± 18.73 % and the Neutrophil is 12.30 ± 18.74%. In test [4], the Eosinophil is reported as 0.00 ± 0.00 %, the Leukocyte counts was determined as 330.5 ± 254.3 Number/mm3, the Lymphocyte turned out to be 87.70 ± 18.73 % and the Neutrophil amounted to 12.30 ± 18.74%.

In the case of `CC(C)(C)NCC(O)c1ccc(O)c(CO)c1` (stereo not drawn) [salbutamol], in test [5], the “inhibition of increase of lung resistance (RL) caused by antigen attack” value is “evident inhibition”.
